Results from patent US4526967A, “Benzoquinolizines and use as α2 -adrenoceptor antagonistics” (John Wyeth & Brother Limited, priority 1983, dated 1985).

Experiments:
[1] = molecular target: T1, α1 -adrenoceptors (Rattus norvegicus, UniProt P43140); test: α1 antagonistic activity on the isolated anococcygeus muscle of the rat (antagonism of phenylephrine or methoxamine); details: agonist phenylephrine or methoxamine, Arunlakshana & Schild, read-out: pA2 values for α1 antagonistic activity (converted)
T1 construct: isolated anococcygeus muscle of the rat; from tissue; host or cells: rat anococcygeus muscle (male, 250-360 g)
T1 sequence (P43140 1-466): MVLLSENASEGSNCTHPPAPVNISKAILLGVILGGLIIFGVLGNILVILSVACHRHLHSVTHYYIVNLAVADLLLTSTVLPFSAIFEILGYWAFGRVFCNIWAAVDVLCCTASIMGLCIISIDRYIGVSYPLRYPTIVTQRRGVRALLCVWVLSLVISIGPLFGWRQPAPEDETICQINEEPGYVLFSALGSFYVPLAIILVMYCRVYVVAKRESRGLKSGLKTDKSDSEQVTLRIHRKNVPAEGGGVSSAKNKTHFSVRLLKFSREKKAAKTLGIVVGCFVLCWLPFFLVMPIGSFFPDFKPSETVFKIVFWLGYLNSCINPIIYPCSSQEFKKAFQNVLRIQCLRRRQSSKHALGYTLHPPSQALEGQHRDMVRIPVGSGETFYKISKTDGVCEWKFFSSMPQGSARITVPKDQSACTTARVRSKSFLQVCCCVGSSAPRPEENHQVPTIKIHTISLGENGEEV
From the text: The compounds of the invention generally antagonise the α2 -adrenoceptors to a much greater extent than the α1 -adrenoceptors. The α1 antagonistic activity can be evaluated by a number of different methods. One method involves assessing the activity on the isolated anococcygeus muscle of the rat. The method is based on that of Gillespie, Br.J.Pharmac., 1972, 45, 404-416. In the procedure male rats (250-360 g) are killed by a blow on the head and bled. The two anococcygeus muscles are removed from their position in the midline of the pelvic cavity, where they arise from the upper coccygeal vertebrae. The muscles are suspended in 5 ml organ baths in Krebs solution containing […] ascorbic acid, to prevent drug oxidation. The tissues are gassed with a 95% oxygen, 5% CO2 mixture and maintained at 37°. Longitudinal muscle contractions are recorded using isotonic transducers. Cumulative dose response curves are then obtained to phenylephrine or in some cases methoxamine, both agents being […] alpha adrenoceptor agonists. The concentration range of phenylephrine or methoxamine used is 0.02 to 0.8 μg.ml^-1. The agonist is then washed from the bath and the test drug added to the bathing medium at a concentration of 10^-6 M. After 30 min equilibration with the test drug a further agonist dose response curve is obtained. The washing, equilibration and agonists dosing procedures are then repeated using 10^-5 M and 10^-4 M solutions of the test drug. Estimates of the pA2 value for the test drug as an antagonist of phenylephrine or methoxamine were made from the agonist dose-ratios using the method of Arunlakshana & Schild, Br. J.Pharmac.Chemother., 1959, 14, 48-58.

[2] = molecular target: T2, α2 -adrenoceptor (Rattus norvegicus, UniProt P22909); test: α2-adrenoceptor antagonistic activity on the rat field stimulated vas deferens preparation (antagonism of clonidine); details: for α2 /α1 selectivity: antilog of (α2 pA2 -α1 pA2); for Kb: rat field stimulated vas deferens, agonist clonidine, Schild plot (Arunlakshana & Schild), read-out: pA2 for α2 -adrenoceptor antagonistic activity (converted)
T2 construct: from tissue; host or cells: rat vas deferens (desheathed, field stimulated)
T2 sequence (P22909 1-465): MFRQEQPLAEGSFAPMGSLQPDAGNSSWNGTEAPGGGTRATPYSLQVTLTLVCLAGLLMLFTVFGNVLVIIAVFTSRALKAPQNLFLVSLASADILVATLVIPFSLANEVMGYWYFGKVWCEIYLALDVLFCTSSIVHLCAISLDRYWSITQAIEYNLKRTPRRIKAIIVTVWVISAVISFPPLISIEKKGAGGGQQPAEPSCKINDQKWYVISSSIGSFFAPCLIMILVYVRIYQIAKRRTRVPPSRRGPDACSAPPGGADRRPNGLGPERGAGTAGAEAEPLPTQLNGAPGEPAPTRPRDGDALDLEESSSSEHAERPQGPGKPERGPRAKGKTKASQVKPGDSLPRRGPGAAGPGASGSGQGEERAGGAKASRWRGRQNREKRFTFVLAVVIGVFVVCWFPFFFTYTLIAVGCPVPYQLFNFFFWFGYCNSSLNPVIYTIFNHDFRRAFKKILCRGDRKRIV
Experimental: The compounds of the invention are tested for α2 -adrenoceptor antagonistic activity on the rat field stimulated vas deferens preparation using a modification of the metod of Drew, Eur. J. Pharmac., 1977, 42, 123-130. The procedure is described below.
Desheathed vasa deferentia from sexually mature rats were suspended in a 6 ml organ bath in Krebs solution at 37° and bubbled with 5% CO2 in oxygen. Platinum ring electrodes were positioned above and below the tissue for field stimulation, the stimulus parameters being 0.1 Hz 1 ms pulse width at supramaximal voltage. Twitch responses were recorded isotonically with a 0.5 g loading. Clonidine hydrochloride was used as the α-adrenoceptor agonist and cumulative concentration-response curves were constructed for the inhibition of twitch obtained with clonidine in the range 0.125 to 4 ng ml^-1. After washing out clonidine, the twitch response quickly recovered and an antagonist was then introduced into the Krebs reservoir. Clonidine concentration-response curves were repeated 90 min after introduction of the antagonist. The concentration of clonidine producing 50% inhibition of twitch before and after introduction of antagonist were obtained and the dose-ratio for clonidine was calculated. Various concentrations of the antagonists were used.
Chemother., 1959, 14, 48-58 and the values of pA2 and slope were calculated.

| Kb [1] [µM] | α2 /α1 selectivity [2] | Kb [2] [µM] | SMILES |
| --- | --- | --- | --- |
| 0.631 | 83 | 0.00759 | CS(=O)(=O)NCCN([C@H]1CCN2CCc3ccccc3[C@H]2C1)S(=O)(=O)c1ccccc1 (relative stereo) [Example 13, N-((2β,11bα)-1,3,4,6,7,11b-Hexahydro-2H-benzo[a]quinolizin-2-yl)-N-(2-methanesulphonamidoethyl)benzenesulphonamide] |
| 1.58 | 309 | 0.00513 | CCCS(=O)(=O)N(CCNS(C)(=O)=O)[C@H]1CCN2CCc3ccccc3[C@H]2C1 (relative stereo) [Example 12, N-((2β,11bα)-1,3,4,6,7,11b-Hexahydro-2H-benzo[a]quinolizine-2-yl)-N-(2-methanesulphonamidoethyl)-n-propanesulphonamide] |
| 4.79 | 407 | 0.0117 | CS(=O)(=O)NCCN([C@H]1CCN2CCc3ccccc3[C@H]2C1)S(C)(=O)=O (relative stereo) [Example 2, N-[(2β,11bα)-1,3,4,6,7,11b-Hexahydro-2H-benzo[a]quinolizin-2-yl]-N-(2-methanesulphonamidoethyl)methanesulphonamide] |
